Tested on: PDE4 from human U-937 cells
Assay: PDE4 Inhibition Assay
Type: biochemical
Details: 1 μM cAMP, [3H]-cAMP, read-out: Potency Class (Inhibitory Concentration) in the PDE4 assay
Procedure: PDE4 from human U-937 cells was used (see T. J. Torphy, et al., J. Pharmacol. Exp. Ther., 1992, 263, 1195-1205). Test compound at various concentration and/or vehicle was preincubated with 2 μg/ml enzyme in Tris-HCl buffer pH 7.5 for 15 minutes at 25° C. The reaction was initiated by addition of 1 1 μM cAMP and 0.01 1 μM [^3H]-cAMP for another 20 minute incubation period and terminated at 100° C. The resulting [^3H]-AMP was converted to [^3H]-adenosine by addition of snake venom nucleotidase and separated by AG1-X2 resin. An aliquot was removed and counted to determine the amount of [^3H]-adenosine formed. Results were converted to percent inhibition and IC so determined using XLfit from IDBS (ID Business Solutions Ltd., 2 Occam Court, Surrey Research Park, Guildford, Surrey, GU2 7QB UK).
Representative compounds of the present invention were tested and found to have significant PDE4 inhibition in this assay.

| Structure (SMILES) | IC50 [nM] |
| --- | --- |
| CNCCC(=O)N1CCN(c2ccc(OC)c(OC3CCC3)c2)C[C@@H]1Cc1ccccc1 [Compound 348, (S)-1-(2-benzyl-4-(3-cyclobutoxy-4-methoxyphenyl)piperazin-1-yl)-3-(methylamino)propan-1-one] | > 1000 |
| COc1ccc(N2CCN(C(=O)Cn3ccnc3)[C@@H](Cc3ccccc3)C2)cc1OC1CCCC1 [Compound 290, (S)-1-(2-benzyl-4-(3-(cyclopentyloxy)-4-methoxyphenyl)piperazin-1-yl)-2-(1H-imidazol-1-yl)ethanone] | > 1000 |
| COc1ccc(N2CCN(C(=O)C(C)C)[C@@H](Cc3ccccc3)C2)cc1OC1CCCC1 [Compound 243, (S)-1-(2-benzyl-4-(3-(cyclopentyloxy)-4-methoxyphenyl)piperazin-1-yl)-2-methylpropan-1-one] | > 1000 |
| CCc1nn(C2CCC2)c2cc(N3CCN(C(=O)Cc4ccccn4)[C@@H](Cc4ccccc4)C3)ccc12 [Compound 352, (S)-1-(2-benzyl-4-(1-cyclobutyl-3-ethyl-1H-indazol-6-yl)piperazin-1-yl)-2-(pyridin-2-yl)ethanone] | > 1000 |
| Cc1nc(CC(=O)N2CCN(c3ccc(OC(F)F)c(OC4CCCC4)c3)C[C@@H]2CC(C)C)n[nH]1 [Compound 374, (S)-1-(4-(3-(cyclopentyloxy)-4-(difluoromethoxy)phenyl)-2-isobutylpiperazin-1-yl)-2-(5-methyl-1H-1,2,4-triazol-3-yl)ethanone] | < 200 |
| CNCC(=O)N1CCN(c2ccc(OC)c(OC3CCC3)c2)C[C@@H]1Cc1ccccc1 [Compound 350, (S)-1-(2-benzyl-4-(3-cyclobutoxy-4-methoxyphenyl)piperazin-1-yl)-2-(methylamino)ethanone] | > 1000 |
| COc1ccc(N2CCN(C(C)=O)[C@@H](CN3Cc4ccccc4C3)C2)cc1OC1CCCC1 [Compound 252, (S)-1-(4-(3-(cyclopentyloxy)-4-methoxyphenyl)-2-(isoindolin-2-ylmethyl)piperazin-1-yl)ethanone] | 200 to 1000 |
| COc1ccc(N2CCN(Cc3sc(C)nc3C)[C@@H](Cc3ccccc3)C2)cc1OC1CCCC1 [Compound 359, (S)-5-((2-benzyl-4-(3-(cyclopentyloxy)-4-methoxyphenyl)piperazin-1-yl)methyl)-2,4-dimethylthiazole] | > 1000 |
| COc1ccc(N2CCN(C(=O)Cc3ncc[nH]3)[C@@H](Cc3ccccc3)C2)cc1OC1CCCC1 [Compound 301, (S)-1-(2-benzyl-4-(3-(cyclopentyloxy)-4-methoxyphenyl)piperazin-1-yl)-2-(1H-imidazol-2-yl)ethanone] | < 200 |
| COc1ccc(N2CCN(C(=O)Cc3ccccn3)[C@@H](Cc3ccccc3)C2)cc1OC1CCC1 [Compound 342, (S)-1-(2-benzyl-4-(3-cyclobutoxy-4-methoxyphenyl)piperazin-1-yl)-2-(pyridin-2-yl)ethanone] | < 200 |
| COc1ccc(N2CCN(C(=O)Cc3cnccn3)[C@@H](Cc3ccccc3)C2)cc1OC1CCCC1 [Compound 387, (S)-1-(2-benzyl-4-(3-(cyclopentyloxy)-4-methoxyphenyl)piperazin-1-yl)-2-(pyrazin-2-yl)ethanone] | 200 to 1000 |
| COc1ccc(N2CCN(C(=O)[C@H]3C[C@H](O)CN3)[C@@H](Cc3ccccc3)C2)cc1OC1CCCC1 [Compound 278, ((S)-2-benzyl-4-(3-(cyclopentyloxy)-4-methoxyphenyl)piperazin-1-yl)((2R,4S)-4-hydroxypyrrolidin-2-yl)methanone] | > 1000 |
| COc1ccc(N2CCN(C(=O)c3c[nH]cn3)[C@@H](Cc3ccccc3)C2)cc1OC1CCCC1 [Compound 241, (S)-(2-benzyl-4-(3-(cyclopentyloxy)-4-methoxyphenyl)piperazin-1-yl)(1H-imidazol-4-yl)methanone] | 200 to 1000 |
| COc1ccc(N2CCN(C(=O)Cc3nn[nH]n3)[C@@H](Cc3ccccc3)C2)cc1OC1CCC1 [Compound 335, (S)-1-(2-benzyl-4-(3-cyclobutoxy-4-methoxyphenyl)piperazin-1-yl)-2-(2H-tetrazol-5-yl)ethanone] | < 200 |
| COc1ccc(N2CCN(C(=O)Cc3ncccn3)[C@@H](Cc3ccccc3)C2)cc1OC1CCC1 [Compound 340, (S)-1-(2-benzyl-4-(3-cyclobutoxy-4-methoxyphenyl)piperazin-1-yl)-2-(pyrimidin-2-yl)ethanone] | < 200 |
| COc1ccc(N2CCN(C(=O)COC(C)=O)[C@@H](Cc3ccccc3)C2)cc1OC1CCCC1 [Compound 284, (S)-2-(2-benzyl-4-(3-(cyclopentyloxy)-4-methoxyphenyl)piperazin-1-yl)-2-oxoethyl acetate] | > 1000 |

| Structure (SMILES) | IC50 [nM] |
| --- | --- |
| COc1ccc(N2CCN(C(=O)Cc3n[nH]c(C)n3)[C@@H](CN3CCCC3)C2)cc1OC1CCCC1 [Compound 255, (S)-1-(4-(3-(cyclopentyloxy)-4-methoxyphenyl)-2-(pyrrolidin-1-ylmethyl)piperazin-1-yl)-2-(5-methyl-1H-1,2,4-triazol-3-yl)ethanone] | > 1000 |
| COc1ccc(N2CCN(C(=O)Cn3ccnc3C)[C@@H](Cc3ccccc3)C2)cc1OC1CCCC1 [Compound 289, (S)-1-(2-benzyl-4-(3-(cyclopentyloxy)-4-methoxyphenyl)piperazin-1-yl)-2-(2-methyl-1H-imidazol-1-yl)ethanone] | > 1000 |
| COc1ccc(N2CCN(C(=O)Cc3n[nH]c(C)n3)[C@@H](CN3CCOCC3)C2)cc1OC1CCCC1 [Compound 256, (S)-1-(4-(3-(cyclopentyloxy)-4-methoxyphenyl)-2-(morpholinomethyl)piperazin-1-yl)-2-(5-methyl-1H-1,2,4-triazol-3-yl)ethanone] | < 200 |
| CCc1nn(C2CCCC2)c2cc(N3CCN(C(=O)Cc4nc(C)n[nH]4)[C@@H](Cc4ccccc4)C3)ccc12 [Compound 380, (S)-1-(2-benzyl-4-(1-cyclopentyl-3-ethyl-1H-indazol-6-yl)piperazin-1-yl)-2-(3-methyl-1H-1,2,4-triazol-5-yl)ethanone] | < 200 |
| COc1ccc(N2CCN(C(=O)C3CCC(=O)N3)[C@@H](Cc3ccccc3)C2)cc1OC1CCCC1 (mixture of isomers) [Compound 285, (S)-5-(2-benzyl-4-(3-(cyclopentyloxy)-4-methoxyphenyl)piperazine-1-carbonyl)pyrrolidin-2-one] | 200 to 1000 |
| COc1ccc(N2CCN(C(=O)Cc3nc(C)n[nH]3)[C@@H](Cc3ccccc3)C2)cc1OC(C)C [Compound 330, (S)-1-(2-benzyl-4-(3-isopropoxy-4-methoxyphenyl)piperazin-1-yl)-2-(3-methyl-1H-1,2,4-triazol-5-yl)ethanone] | < 200 |
| COc1ccc(N2CCN(C(=O)Cc3cc[nH]c3)[C@@H](Cc3ccccc3)C2)cc1OC1CCCC1 [Compound 307, (S)-1-(2-benzyl-4-(3-(cyclopentyloxy)-4-methoxyphenyl)piperazin-1-yl)-2-(1H-pyrrol-3-yl)ethanone] | < 200 |
| COc1ccc(N2CCN(C(=O)CC(N)=O)[C@@H](Cc3ccccc3)C2)cc1OC1CCC1 [Compound 261, (S)-3-(2-benzyl-4-(3-cyclobutoxy-4-methoxyphenyl)piperazin-1-yl)-3-oxopropanamide] | < 200 |
| COc1ccc(N2CCN(C(=O)Cc3nn[nH]n3)[C@@H](Cc3ccccc3)C2)cc1OC1CCCC1 [Compound 294, (S)-1-(2-benzyl-4-(3-(cyclopentyloxy)-4-methoxyphenyl)piperazin-1-yl)-2-(2H-tetrazol-5-yl)ethanone] | < 200 |
| CCc1nn(C2CCC2)c2cc(N3CCN(CCC(N)=O)[C@@H](Cc4ccccc4)C3)ccc12 [Compound 276, (S)-3-(2-benzyl-4-(1-cyclobutyl-3-ethyl-1H-indazol-6-yl)piperazin-1-yl)propanamide] | > 1000 |
| O=C(Cc1ncccn1)N1CCN(c2ccc(OC(F)F)c(OC3CCC3)c2)C[C@@H]1Cc1ccccc1 [Compound 356, (S)-1-(2-benzyl-4-(3-cyclobutoxy-4-(difluoromethoxy)phenyl)piperazin-1-yl)-2-(pyrimidin-2-yl)ethanone] | 200 to 1000 |
| Cc1nc(CC(=O)N2CCN(c3ccc(OC(F)F)c(OC4CCC4)c3)C[C@@H]2Cc2ccccc2)n[nH]1 [Compound 345, (S)-1-(2-benzyl-4-(3-cyclobutoxy-4-(difluoromethoxy)phenyl)piperazin-1-yl)-2-(5-methyl-1H-1,2,4-triazol-3-yl)ethanone] | < 200 |
| CCc1nn(C(C)C)c2cc(N3CCN(C(=O)CC(N)=O)[C@@H](Cc4ccccc4)C3)ccc12 [Compound 382, (S)-3-(2-benzyl-4-(3-ethyl-1-isopropyl-1H-indazol-6-yl)piperazin-1-yl)-3-oxopropanamide] | > 1000 |
| COc1ccc(N2CCN(C(=O)Cc3cncn3C)[C@@H](Cc3ccccc3)C2)cc1OC1CCCC1 [Compound 318, (S)-1-(2-benzyl-4-(3-(cyclopentyloxy)-4-methoxyphenyl)piperazin-1-yl)-2-(1-methyl-1H-imidazol-5-yl)ethanone] | 200 to 1000 |
| COc1ccc(N2CCN(C(=O)Cc3c[nH]cn3)[C@@H](Cc3ccccc3)C2)cc1OC1CCC1 [Compound 303, (S)-1-(2-benzyl-4-(3-cyclobutoxy-4-methoxyphenyl)piperazin-1-yl)-2-(1H-imidazol-4-yl)ethanone] | < 200 |
| CCOC(=O)CC(=O)N1CCN(c2ccc(OC)c(OC3CCCC3)c2)C[C@@H]1CC(C)C [Compound 368, (S)-ethyl 3-(4-(3-(cyclopentyloxy)-4-methoxyphenyl)-2-isobutylpiperazin-1-yl)-3-oxopropanoate] | > 1000 |

Reference: patent US9624200B2, “Therapeutic piperazines” (DART NEUROSCIENCE (CAYMAN) LTD., priority 2006, dated 2017)
